Structures are written as SMILES.

The target of this experiment is T1, MaNifB (Methanosarcina acetivorans, UniProt Q8TIF7).
T1 sequence (Q8TIF7 1-323): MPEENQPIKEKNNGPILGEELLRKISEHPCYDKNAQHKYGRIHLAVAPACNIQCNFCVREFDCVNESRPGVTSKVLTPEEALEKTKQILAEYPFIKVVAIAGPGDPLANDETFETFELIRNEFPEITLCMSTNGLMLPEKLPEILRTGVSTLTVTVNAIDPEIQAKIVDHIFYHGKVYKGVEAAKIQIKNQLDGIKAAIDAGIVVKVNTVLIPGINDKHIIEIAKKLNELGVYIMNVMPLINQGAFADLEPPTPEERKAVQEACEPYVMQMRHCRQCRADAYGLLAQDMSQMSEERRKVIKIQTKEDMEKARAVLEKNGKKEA
The note with it: K-cluster-loaded MaNifB; dithionite-reduced or IDS-oxidized.

Take `C[S+](CC[C@H](N)C(=O)O)C[C@H]1O[C@@H](n2cnc3c(N)ncnc32)[C@H](O)[C@@H]1O` (stereo partly shown) [SAM]: the “CW EPR and 3-pulse ESEEM of K- to L*-cluster conversion” value is given as “SAM-treated MaNifB (designated MaNifB-L*) displayed a distinct change in the line-shape”.

Values taken from publication PMC8629924 (Nature chemistry, 2021).
